The target of test [1] is T1, Trypsin (porcine pancreas, Sigma-Aldrich) (Sus scrofa, UniProt P00761).
T1 construct: purchased Sigma-Aldrich; host or cells: porcine pancreas
The test is described as follows: Trypsin inhibition (IC50 measurement). The format is biochemical. Conditions: at 1 h; 25°C; hydrolysis followed every 2 min for 1 h; inhibitor from 0 to 81.6 mM (so in the source); tested sample is purified Psp mixture, about 80% Psp A. As for the experimental part: Trypsin (porcine pancreas, Sigma-Aldrich) activity was measured at 25°C in a reaction mixture that contained from 0 to 81.6 mM leupeptin or pseudospumigin A and the hydrolysis was followed at every 2 min for 1 h, as described earlier (Liu et al., [2015]).

Test [2] relates to trypsin. Conditions: commercial trypsin inhibitor; ref Aoyagi et al., 1969; Kurinov and Harrison, 1996; cited from earlier work. From the text: Figure 6 Time dependence of trypsin inhibition efficiency (IC50) of pseudospumigin A [•, Psp A (3) + other Psp variants], nostosin A (♦, Ns A) and spumigin E (□, Sp A, from Fewer et al., [2013]). […] Time dependent inhibition is ...

Data on two compounds can be found in paper PMC5640712 (Frontiers in Microbiology, 2017).

T1 sequence (P00761 9-231): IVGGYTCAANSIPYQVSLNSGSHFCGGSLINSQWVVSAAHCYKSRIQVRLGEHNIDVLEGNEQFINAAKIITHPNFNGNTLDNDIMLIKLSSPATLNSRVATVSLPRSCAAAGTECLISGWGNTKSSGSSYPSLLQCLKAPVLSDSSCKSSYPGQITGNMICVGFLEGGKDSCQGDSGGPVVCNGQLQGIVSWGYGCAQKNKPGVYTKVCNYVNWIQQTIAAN

By IC50 is commonly meant the midpoint of a concentration-inhibition curve. As for `CC[C@H](C)[C@H](NC(=O)[C@@H](CCc1ccc(O)cc1)NC(=O)[C@H](O)Cc1ccc(O)cc1)C(=O)NC(C=O)CCCNC(=N)N` (some centres unmarked) [Pseudospumigin A], the IC50 in test [1] is 4.5 µM.
In the case of Ac-Leu-Leu-Argininal [leupeptin], the “time dependence of trypsin interaction” value in test [2] is reported as “interacts with trypsin without time dependency”.
